The molecules below were run against T1, ERR1 (also known as ERR-α or ERR-1) (Homo sapiens, UniProt P11474) (assay: TR-FRET assay (disruption of co-activator peptide binding to ERR1 LBD)). Details: 6 nM 6His-ERR1LBD, 6 nM GST-SRC-2 peptide; average of 3 independent experiments.
T1 sequence (P11474 193-421 limits assumed): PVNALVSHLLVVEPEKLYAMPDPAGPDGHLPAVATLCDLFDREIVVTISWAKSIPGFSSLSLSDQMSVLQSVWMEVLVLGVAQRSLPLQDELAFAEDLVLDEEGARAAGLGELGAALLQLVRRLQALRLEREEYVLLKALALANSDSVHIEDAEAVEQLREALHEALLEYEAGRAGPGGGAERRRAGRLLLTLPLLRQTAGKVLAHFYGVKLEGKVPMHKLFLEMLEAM
Format: biochemical
Procedure: Time-Resolved Fluorescence Resonance Energy Transfer (TR-FRET) experiments were performed to examine the functional response of ERR1 (also known as ERR-α or ERR-1) ligands. The TR-FRET assay described herein relied on the conformation of ERR1 for binding to a co-activator peptide: when a test compound binds to ERR1 and alters its conformation, it can disrupt the binding of the co-activator peptide. The components of this homogeneous secondary assay included: the ^6His-tagged-ERR1LBD, a GST-labeled-hSRC2 co-activator polypeptide and a fluorescent donor/acceptor pair from CIS bio international htrf/bioassays (Bedford, Mass.) using both an α-GST Europium (Eu) Cryptate label and an α^6His-XL665 (allophycocyanin) fluorophore.
For TR-FRET measurements, the reaction was buffered in 25 mM Tris pH 8, 2.5 mM Hepes, 20 mM KCl, 1 mM DTT, and 0.05 mg/mL BSA (delipidated). The final concentrations of reagents were 6 nM of ERR1LBD, 6 nM GST-SRC-2 peptide, 30 nM Eu cryptate, and 7.5 nM a^6His-XL665. Reactions were allowed to reach equilibrium at 25° C. for 4-18 h before collecting data on the Analyst from LJL Biosystems (Molecular Devices Sunnyvale, Calif.). […] Dose response curves were fitted using a hyperbolic equation and the data reported is the average of 3 independent experiments.

Compound | EC50 [nM]
CN1CCC(CN2C(=O)S/C(=C\c3ccc4c(cnn4Cc4ccc(Cl)cc4C(F)(F)F)c3)C2=O)CC1 [Compound 134, (5Z)-5-({1-[4-Chloro-2-(trifluoromethyl)benzyl]-1H-indazol-5-yl}methylidene)-3-[(1-methylpiperidin-4-yl)methyl]-1,3-thiazolidine-2,4-dione] | 45
COc1ccc(Cn2ncc3cc(/C=C4\SC(=O)N(C5CCNCC5)C4=O)ccc32)c(C(F)(F)F)c1 [Compound 26, (5Z)-5-({1-[4-Methoxy-2-(trifluoromethyl)benzyl]-1H-indazol-5-yl}methylidene)-3-piperidin-4-yl-1,3-thiazolidine-2,4-dione] | 67
O=C1S/C(=C\c2ccc3c(cnn3Cc3ccc(Cl)cc3C(F)(F)F)c2)C(=O)N1Cc1cscn1 [Compound 93] | 14
CN(C)S(=O)(=O)NC(=O)CN1C(=O)S/C(=C\c2ccc3c(cnn3Cc3ccc(C(F)(F)F)cc3C(F)(F)F)c2)C1=O [Compound 88, 2-[(5Z)-5-({1-[2,4-Bis(trifluoromethyl)benzyl]-1H-indazol-5-yl}methylidene)-2,4-dioxo-1,3-thiazolidin-3-yl]-N-(dimethylsulfamoyl)acetamide] | 134
COc1ccc(Cn2ncc3cc(/C=C4\SC(=O)N(C[C@@H]5CCCN5C)C4=O)ccc32)c(C(F)(F)F)c1 [Compound 23, (5Z)-5-({1-[4-Methoxy-2-(trifluoromethyl)benzyl]-1H-indazol-5-yl}methylidene)-3-{[(2S)-1-methylpyrrolidin-2-yl]methyl}-1,3-thiazolidine-2,4-dione] | 45
O=C1S/C(=C\c2ccc3c(cnn3Cc3ccc(C(F)(F)F)cc3C(F)(F)F)c2)C(=O)N1C1CN2CCC1CC2 (centres unmarked) [Compound 63, (5Z)-3-(1-Azabicyclo[2.2.2]oct-3-yl)-5-({1-[2,4-bis(trifluoromethyl)benzyl]-1H-indazol-5-yl}methylidene)-1,3-thiazolidine-2,4-dione] | 20

Further lines, results first:

EC50 [nM] | Compound
22 | O=C(O)C(C1CCNCC1)N1C(=O)S/C(=C\c2ccc3c(cnn3Cc3ccc(Cl)cc3C(F)(F)F)c2)C1=O (centres unmarked) [Compound 224, [(5Z)-5-({1-[4-Chloro-2-(trifluoromethyl)benzyl]-1H-indazol-5-yl}methylidene)-2,4-dioxo-1,3-thiazolidin-3-yl](piperidin-4-yl)acetic acid]
87 | CC(C)N1C[C@@H](N2C(=O)S/C(=C\c3ccc4c(cnn4Cc4ccc(Cl)cc4C(F)(F)F)c3)C2=O)[C@@H](F)C1 (relative stereo) [Compound 325, (5Z)-5-({1-[4-Chloro-2-(trifluoromethyl)benzyl]-1H-indazol-5-yl}methylidene)-3-[cis-4-fluoro-1-(1-methylethyl)pyrrolidin-3-yl]-1,3-thiazolidine-2,4-dione]
277 | CS(=O)(=O)NC(=O)CN1C(=O)S/C(=C\c2ccc3c(cnn3Cc3ccc(F)cc3C(F)(F)F)c2)C1=O [Compound 185, 2-[(5Z)-5-({1-[4-Fluoro-2-(trifluoromethyl)benzyl]-1H-indazol-5-yl}methylidene)-2,4-dioxo-1,3-thiazolidin-3-yl]-N-(methylsulfonyl)acetamide]
6 | CS(=O)(=O)NN1C(=O)S/C(=C\c2ccc3c(c2)c(Cl)nn3Cc2ccc(Cl)cc2C(F)(F)F)C1=O [Compound 366, N-[(5Z)-5-({3-Chloro-1-[4-chloro-2-(trifluoromethyl)benzyl]-1H-indazol-5-yl}methylidene)-2,4-dioxo-1,3-thiazolidin-3-yl]methanesulfonamide]
31 | O=C1S/C(=C\c2ccc3c(cnn3Cc3ccc(Cl)cc3C(F)(F)F)c2)C(=O)N1C[C@@H]1COCCN1 [Compound 198, (5Z)-5-({1-[4-Chloro-2-(trifluoromethyl)benzyl]-1H-indazol-5-yl}methylidene)-3-[(3R)-morpholin-3-ylmethyl]-1,3-thiazolidine-2,4-dione]
